According to US20240342138A1, “MICROTUBULE TARGETING AGENTS” (BPGbio, Inc., priority 2023, published 2024):
Blank lines part the entries; values can stand above or below the molecule they belong to.

Key:
[1] = Blood brain barrier permeability (PVDF membrane coated with porcine brain polar lipid extract); type: in vitro ADME; details: for recovery at 4 h, 10 μM: pig, not told
Protocol: Preparation of Donor Solution a) 0.2 mM working solution was prepared by diluting 10 mM stock solution with DMSO. b) 10 μM donor solution (5% DMSO) was prepared by diluting 20 μL of working solution with 380 μL PBS. 2) 150 μL of 10 μM donor solutions to each well of the donor plate, whose PVDF membrane was precoated with 5 μL of 1% brain polar lipid extract (Porcine)/dodecane mixture. Duplicates were prepared. 3) 300 μL of PBS was added to each well of the PTFE acceptor plate. 4) The donor plate and acceptor plate were combined together and incubated for 4h at room temperature with shaking at 300 rpm. 5) Preparation of TO sample: 20 μL donor solution was transferred to new well followed by the addition of 250 μL PBS (DF: 13.5), 130 μL ACN (containing internal standard) as TO sample. 6) Preparation of acceptor sample: The plate was removed from incubator. 270 μL solution was transferred from each acceptor well and mixed with 130 μL ACN (containing internal standard) as acceptor sample. 7) Preparation of donor sample: […] was transferred from each donor well and mixed with 250 μL PBS (DF: 13.5), 130 μL ACN (containing internal standard) as donor sample. 8) Acceptor samples and donor samples were all analyzed by LC/MS/MS.

[2] = system: colchicine binding site of tubulin; test: EBI labeling assay in MIA PaCa2 cells (Western blot); type: cell-based; details: 2 hours compound, then 2 hours 100 μM EBI, FIG. 2, FIG. 3
Protocol: MIA PaCa2 cells were cultured in DMEM+10% FBS and 1% P/S. Cells were plated at 1.5-2×10^6 in 60 mm dishes. For drug treatments, cells were treated the day after plating with 0.1% DMSO or the compounds tested at the concentrations indicated in FIG. 2 for 2 hours.
• Cells were treated with compounds for 2 hours at 37°, 5% CO2 (in the cell culture incubator), and then for an additional 2 hours with 100 μM EBI (with compounds present) under the same conditions. • Cells were then harvested with Trypsin and pelleted at 500 g for 3 minutes. • Cells were rinsed in 1 mL PBS and transferred to clean epi tubes. […] BCA assay plates were incubated for 15 minutes in the 37-degree incubator in the outer molecular lab. • After protein normalization (including addition of reducing Laemmli buffer from a 6× stock) samples were boiled at 95 degrees for 3 minutes and frozen for subsequent Western Blotting.
Significance in difference of treated MIA PaCa-2 cells to 0.1% DMSO treated cells were tested by Student t test (* p<0.05; ** p<0.01; *** p<0.001).

HCT116 cells = test: Kinetochore assembly, immunocytochemistry / confocal microscopy; type: cell-based; details: 300 nM, 24h
Protocol: The HCT116 cells were cultured using DMEM media supplemented with 10% FBS and 1% Pen/Strep. Cells were maintained to a maximum of 80% confluency before being split and plated into coverslips in 12-well plates.
1. HCT116 cells were plated on Poly-D-Lysine German Glass Coverslips (#1.5, 18 mm)
2. After 24h cells were treated with 300 nM of Compound 1 and Nocodozole.
3. After 24h cells were washed briefly with PBS and fixed with warm 4% paraformaldehyde at room temperature for 10 min.
4. Cells were permeabilized and blocked in 10% goat serum, 0.5% Triton-X in PBS for 1 hr.
5. Cells were incubated with Primary antibodies overnight.
6. Washed 3× with PBS for 10 min
7. Incubated with secondary antibodies at room temperature for 1 hr.
8. Washed 3× with PBS for 10 min
9. Coverslips were mounted with ProLong Gold Anti-Fade Mount with DAPI and imaged with Olympus FV1200 MPE Microscope.
10. Images were collected with identical confocal settings for all of the samples and Z-stacked images were projected with maximal projection mode using Fluor View Software.
1. Selected cells of interest using the drawing/selection tools (i.e. rectangle, circle, polygon or freeform).
2. From the Analyze menu selected “Measure.”
3. Selected region with no fluorescence to be my background.
4. Repeated these steps for other cells in the field of view
5. Used the CTCF formula to calculate Mad1 expression:
CTCF=Integrated Density−(Area of selected cell×Mean fluorescence of background readings)
Micrographs were imaged using Olympus FV1200 MPE confocal microscope at 63× oil. White arrows indicate dividing cells. Representative images of N=3 biological replicates. Significance in difference of treated HCT116 cells to untreated cells was tested by Student t test (** p<0.01).

[3] = system: Triple Negative Breast Cancer patient-derived organoids CTG-1520, CTG-0896, CTG-1017; test: Viability of PDO models of taxane resistance (CellTiter-Glo, 5 days); type: cell-based, human; details: same patient before (CTG-1017) and after (CTG-1520) taxane-based chemotherapy
Protocol: FIGS. 9A and 9B show potency of Compound 1 in patient-derived organoid (PDO) models of taxane resistance. Patient-derived organoids were treated with Compound 1, paclitaxel or controls (0.1% DMSO, positive control—10% DMSO) for 5 days. Viability was assessed using the CellTiter-Glo® assay. IC50 and maximal (max) inhibition values were extrapolated from the viability curves. A) Model overview and dose response curves to Compound 1 and paclitaxel. B) Summary of CellTiter-Glo results in all three models tested. Compiled data of N=4 replicates.
CTG-1520 and CTG-0896 were derived from Triple Negative Breast Cancer (TNBC) patients post-treatment, and progression on a taxane-based therapy and the models' resistance to paclitaxel was confirmed by testing in vivo PDX (Patient-derived xenograft) tumor growth. […] Compound 1 and paclitaxel were tested head-to-head in each model in a dose-curve setting. 10% DMSO was used as the positive control for induction of 100% cell cytotoxicity.

[4] = system: Triple Negative Breast Cancer patient-derived organoids CTG-1520, CTG-0896, CTG-1017; details: CTG-1520 ex vivo; Champion Oncology Lumen Platform database; cited from earlier work
CTG-1520 PDX tumors = details: CTG-1520 in vivo; Champion Oncology Lumen Platform database; cited from earlier work
CTG-1017 = details: CRO historical data; cited from earlier work

recovery at 4 h, 10 μM [1]: < 100%
SMILES: CC(C)NCC(O)COc1ccc(CC(N)=O)cc1 (centres unmarked) [Atenolol, reference compound]

Permeability ([1]; 10 μM, 4 h): High
Papp at 4 h, 10 μM ([1]; PAMPA, read-out: Mean Pe): 4.74 ×10⁻⁶ cm/s
recovery at 4 h, 10 μM [1]: 27.7%
SMILES: CC(C)NCC(O)COc1cccc2ccccc12 (centres unmarked) [Propranolol, reference compound]

SMILES: COC(=O)Nc1nc2cc(C(=O)c3cccs3)ccc2[nH]1 [nocodazole, reference compound]
Formation of EBI:β-tubulin adducts [2]: inhibited formation of the EBI:β-tubulin adducts
Mitotic spindle formation (HCT116 cells; FIG. 4A): lack of proper mitotic spindle formation
Mad1 signal intensity (HCT116 cells; FIG. 4B): increase in Mad1 signal intensity

SMILES: CC(=O)O[C@H]1C(=O)[C@@]2(C)[C@H]([C@H](OC(=O)c3ccccc3)[C@]3(O)C[C@H](OC(=O)[C@H](O)[C@@H](NC(=O)c4ccccc4)c4ccccc4)C(C)=C1C3(C)C)[C@]1(OC(C)=O)CO[C@@H]1C[C@@H]2O [paclitaxel]
Retention of potency in matched PDO models [3]: did not
max effect [4]: 29.1%
TGI (CTG-1520 PDX tumors): 10%
Sensitivity of model in vivo (CTG-1017): sensitive
